# Patent US20250243180A1, “TARGETED PROTEIN DEGRADATION” (Monte Rosa Therapeutics AG, priority 2023, published 2025)
# Structures can show the parent of a compound that is named as a salt. Where two headings read alike, the source gives them in different places.
# Tests used:
# [1] = target: CRBN-DDB1 (Homo sapiens (Human), UniProt Q96SW2); assay: Compound binding to CRBN by HTRF assay
# Summary of the method: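 Ki calculated via Cheng-Prusoff from geometric-mean EC50 values, after normalizing the HTRF ratio to lenalidomide (active) and DMSO (neutral) controls. Compounds (11 points, 1:3 steps) incubated 30 min at ambient temperature with CRBN-DDB1 2.5 nM, anti-His Tb cryptate and Cy5-thalidomide tracer 100 nM.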
# [2] = target: NEK7 (Homo sapiens (Human), UniProt Q8TDX7+Q96SW2); assay: NEK7 NanoBiT degradation assay in Cal51 NEK7 NanoBiT cell line; assay type: cell-based; settings: Cal51 NEK7 NanoBiT cells, 24 hours; for Dmax: CAL-51
# Sequence of NEK7 (Q8TDX7 whole entry): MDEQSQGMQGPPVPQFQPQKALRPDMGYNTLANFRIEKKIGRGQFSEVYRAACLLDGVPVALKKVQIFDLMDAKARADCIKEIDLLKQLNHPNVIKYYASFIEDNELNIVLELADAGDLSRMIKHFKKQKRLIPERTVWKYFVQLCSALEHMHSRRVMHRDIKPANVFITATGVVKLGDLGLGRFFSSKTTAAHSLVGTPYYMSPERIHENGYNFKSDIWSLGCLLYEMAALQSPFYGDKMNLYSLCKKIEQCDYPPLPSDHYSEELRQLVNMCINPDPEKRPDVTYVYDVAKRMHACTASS
# Sequence of NEK7 (Q96SW2 whole entry): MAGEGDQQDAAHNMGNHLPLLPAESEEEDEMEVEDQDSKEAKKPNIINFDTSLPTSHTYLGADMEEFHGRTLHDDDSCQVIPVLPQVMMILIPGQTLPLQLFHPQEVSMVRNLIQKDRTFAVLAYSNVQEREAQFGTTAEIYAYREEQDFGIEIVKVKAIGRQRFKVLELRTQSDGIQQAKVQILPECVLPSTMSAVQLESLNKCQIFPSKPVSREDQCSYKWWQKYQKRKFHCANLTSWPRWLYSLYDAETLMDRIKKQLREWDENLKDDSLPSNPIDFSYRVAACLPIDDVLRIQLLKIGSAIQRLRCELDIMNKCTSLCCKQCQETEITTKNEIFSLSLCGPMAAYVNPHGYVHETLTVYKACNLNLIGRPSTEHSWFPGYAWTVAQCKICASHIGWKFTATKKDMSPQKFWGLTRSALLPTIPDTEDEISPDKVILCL
# Sequence of NEK7 (Q16531 2-1140 partner): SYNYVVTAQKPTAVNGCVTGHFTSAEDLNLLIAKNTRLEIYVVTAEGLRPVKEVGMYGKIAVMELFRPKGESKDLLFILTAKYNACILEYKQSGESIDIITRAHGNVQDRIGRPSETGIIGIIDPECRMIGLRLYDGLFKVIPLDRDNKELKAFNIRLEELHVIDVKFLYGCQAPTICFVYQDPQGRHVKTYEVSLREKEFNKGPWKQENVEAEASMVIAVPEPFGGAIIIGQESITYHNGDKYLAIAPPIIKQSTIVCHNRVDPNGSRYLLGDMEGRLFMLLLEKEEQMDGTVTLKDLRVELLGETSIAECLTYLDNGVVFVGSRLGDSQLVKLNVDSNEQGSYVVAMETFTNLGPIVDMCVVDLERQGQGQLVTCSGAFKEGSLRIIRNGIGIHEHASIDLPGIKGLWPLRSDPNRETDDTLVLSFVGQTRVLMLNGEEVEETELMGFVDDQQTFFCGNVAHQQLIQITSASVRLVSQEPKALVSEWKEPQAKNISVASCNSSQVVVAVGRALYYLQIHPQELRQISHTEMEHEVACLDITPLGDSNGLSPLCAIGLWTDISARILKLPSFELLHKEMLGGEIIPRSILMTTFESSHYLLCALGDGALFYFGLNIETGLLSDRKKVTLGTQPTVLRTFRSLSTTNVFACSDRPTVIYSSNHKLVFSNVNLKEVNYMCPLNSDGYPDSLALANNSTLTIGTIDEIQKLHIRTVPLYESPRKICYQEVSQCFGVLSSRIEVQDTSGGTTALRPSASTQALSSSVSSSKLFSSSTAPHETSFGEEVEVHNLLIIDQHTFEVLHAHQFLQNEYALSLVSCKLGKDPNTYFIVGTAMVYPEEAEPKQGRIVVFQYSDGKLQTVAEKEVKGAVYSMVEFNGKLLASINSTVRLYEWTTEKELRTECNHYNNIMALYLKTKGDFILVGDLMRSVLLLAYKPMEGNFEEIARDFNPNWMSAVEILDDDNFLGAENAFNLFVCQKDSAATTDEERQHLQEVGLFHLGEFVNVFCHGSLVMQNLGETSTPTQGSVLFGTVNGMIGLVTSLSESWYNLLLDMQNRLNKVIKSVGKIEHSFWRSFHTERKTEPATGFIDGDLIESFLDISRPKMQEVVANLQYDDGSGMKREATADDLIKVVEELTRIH
# Summary of the method: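 EC50 comes from a 4-parameter fit of control-normalized luminescence. The luminescence reports HiBiT-NEK7 (endogenous knock-in) complemented by stably expressed LgBiT in Cal51 cells after 24 h compound exposure at 37 °C. Final concentrations ran 1 μM to 0.05 nM, with Endurazine substrate present in the medium throughout.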
# [3] = NEK7 degradation, read-out: NanoBiT Dmax
# [4] = NEK7 degradation, read-out: NanoBiT DC50
# Sequence of CRBN-DDB1 (Q96SW2 whole entry): as the sequence (Q96SW2 whole entry) above
# Sequence of CRBN-DDB1 (Q16531 whole entry partner): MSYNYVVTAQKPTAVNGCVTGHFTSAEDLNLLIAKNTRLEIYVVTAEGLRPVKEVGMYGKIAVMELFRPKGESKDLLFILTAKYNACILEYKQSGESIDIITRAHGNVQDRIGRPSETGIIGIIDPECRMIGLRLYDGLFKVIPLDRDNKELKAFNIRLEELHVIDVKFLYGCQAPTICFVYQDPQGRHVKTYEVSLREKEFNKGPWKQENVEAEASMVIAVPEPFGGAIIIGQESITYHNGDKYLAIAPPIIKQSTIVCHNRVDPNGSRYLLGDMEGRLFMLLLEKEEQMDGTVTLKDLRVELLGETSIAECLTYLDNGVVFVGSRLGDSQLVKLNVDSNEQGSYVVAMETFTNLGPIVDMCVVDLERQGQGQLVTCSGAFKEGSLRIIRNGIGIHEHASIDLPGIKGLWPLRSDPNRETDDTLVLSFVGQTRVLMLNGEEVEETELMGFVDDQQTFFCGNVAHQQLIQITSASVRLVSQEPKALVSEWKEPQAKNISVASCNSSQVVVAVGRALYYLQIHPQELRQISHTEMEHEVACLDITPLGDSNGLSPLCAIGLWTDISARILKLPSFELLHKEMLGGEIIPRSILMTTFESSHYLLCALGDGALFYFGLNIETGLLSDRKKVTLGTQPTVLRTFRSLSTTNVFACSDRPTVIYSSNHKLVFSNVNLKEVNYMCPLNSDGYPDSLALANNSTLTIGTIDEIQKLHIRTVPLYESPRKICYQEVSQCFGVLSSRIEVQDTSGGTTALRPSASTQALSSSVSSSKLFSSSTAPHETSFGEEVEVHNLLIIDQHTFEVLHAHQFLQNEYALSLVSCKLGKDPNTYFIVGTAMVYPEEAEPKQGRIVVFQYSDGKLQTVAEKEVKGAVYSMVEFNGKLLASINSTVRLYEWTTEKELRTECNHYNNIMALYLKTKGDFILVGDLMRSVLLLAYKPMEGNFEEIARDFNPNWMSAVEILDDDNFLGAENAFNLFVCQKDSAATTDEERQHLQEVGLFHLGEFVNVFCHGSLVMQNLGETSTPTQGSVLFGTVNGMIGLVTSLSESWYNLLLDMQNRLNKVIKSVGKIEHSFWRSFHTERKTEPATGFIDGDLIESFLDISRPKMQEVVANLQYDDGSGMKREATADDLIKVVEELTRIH
SMILES,EC50 [1],"EC50 ([1]; HTRF class, Cereblon binding)",Dmax ([2]; read-out: NEK7 NanoBiT Dmax),"Dmax [2, 3]",DC50 ([2]; read-out: NEK7 NanoBiT DC50),"DC50 [2, 4]"
Cc1ccc(C(C)(C)C(=O)NCc2cc(Cl)c(C3CCC(=O)NC3=O)c(Cl)c2)nc1 (stereo not drawn) [Compound 89],120 nM,100 to 1000 nM,92%,> 75%,6 nM,≤ 100 nM
Cn1ccc2cc(C(C)(C)C(=O)NCc3cc(Cl)c(C4CCC(=O)NC4=O)c(Cl)c3)ccc21 (stereo not drawn) [Compound 90],50 nM,≤ 100 nM,94%,> 75%,4 nM,≤ 100 nM
CC(C)(C(=O)NCc1cc(Cl)c(C2CCC(=O)NC2=O)c(Cl)c1)c1ccc2[nH]ccc2c1 (stereo not drawn) [Compound 91],40 nM,≤ 100 nM,97%,> 75%,0.4 nM,≤ 100 nM
CC(C)(C(=O)NCc1cc(Cl)c(C2CCC(=O)NC2=O)c(Cl)c1)c1ccnc(C#N)c1 (stereo not drawn) [Compound 92],180 nM,100 to 1000 nM,71%,50 to 75%,65 nM,≤ 100 nM
COc1cc(C(C)(C)C(=O)NCc2cc(Cl)c(C3CCC(=O)NC3=O)c(Cl)c2)ccn1 (stereo not drawn) [Compound 98],110 nM,100 to 1000 nM,95%,> 75%,3 nM,≤ 100 nM
CC(C)(C(=O)NCc1cc(Cl)c(C2CCC(=O)NC2=O)c(Cl)c1)c1cccnc1 (stereo not drawn) [Compound 99],80 nM,≤ 100 nM,87%,> 75%,8 nM,≤ 100 nM
CC(C)(C(=O)NCc1ccc(C2CCC(=O)NC2=O)c(Cl)c1)c1ccccc1 (stereo not drawn) [Compound 103],180 nM,100 to 1000 nM,89%,> 75%,20 nM,≤ 100 nM
CC(C)(C(=O)NCc1cc(F)c(C2CCC(=O)NC2=O)c(Cl)c1)c1ccncc1 (stereo not drawn) [Compound 106],240 nM,100 to 1000 nM,80%,> 75%,26 nM,≤ 100 nM
"Cc1cc(CNC(=O)C(C)(C)c2ccncc2)cc(Cl)c1C1CCC(=O)NC1=O (stereo not drawn) [Compound 107, N-(3-chloro-4-(2,6-dioxopiperidin-3-yl)-5-methylbenzyl)-2-methyl-2-(pyridin-4-yl)propanamide]",440 nM,100 to 1000 nM,82%,> 75%,28 nM,≤ 100 nM
CC(C)(C(=O)NCc1ccc(C2CCC(=O)NC2=O)c(Cl)c1)c1ccncc1 (stereo not drawn) [Compound 109],480 nM,100 to 1000 nM,69%,50 to 75%,250 nM,100 to 1000 nM
"CC(C)(C(=O)NCc1cc(Cl)c(C2CCC(=O)NC2=O)c(Cl)c1)c1ccno1 (stereo not drawn) [Compound 120, N-(3,5-dichloro-4-(2,6-dioxopiperidin-3-yl)benzyl)-2-(isoxazol-5-yl)-2-methylpropanamide]",100 nM,≤ 100 nM,68%,50 to 75%,61 nM,≤ 100 nM
CC(C)(C(=O)NCc1cc(Cl)c(C2CCC(=O)NC2=O)c(Cl)c1)c1ccon1 (stereo not drawn) [Compound 121],290 nM,100 to 1000 nM,80%,> 75%,30 nM,≤ 100 nM
CC(C)(C(=O)NCc1cc(Cl)c(C2CCC(=O)NC2=O)c(Cl)c1)c1cnco1 (stereo not drawn) [Compound 122],230 nM,100 to 1000 nM,73%,50 to 75%,56 nM,≤ 100 nM
Cn1cncc1C(C)(C)C(=O)NCc1cc(Cl)c(C2CCC(=O)NC2=O)c(Cl)c1 (stereo not drawn) [Compound 123],610 nM,100 to 1000 nM,70%,50 to 75%,100 nM,100 to 1000 nM
CC(C)(C(=O)NCc1cc(Cl)c(C2CCC(=O)NC2=O)c(Cl)c1)c1ncco1 (stereo not drawn) [Compound 124],140 nM,100 to 1000 nM,73%,50 to 75%,78 nM,≤ 100 nM
CC(C)(C(=O)NCc1cc(Cl)c(C2CCC(=O)NC2=O)c(Cl)c1)c1ccns1 (stereo not drawn) [Compound 125],70 nM,≤ 100 nM,71%,50 to 75%,54 nM,≤ 100 nM
"CC(C)(C(=O)NCc1cc(Cl)c(C2CCC(=O)NC2=O)c(Cl)c1)c1ccsc1 (stereo not drawn) [Compound 126, N-(3,5-dichloro-4-(2,6-dioxopiperidin-3-yl)benzyl)-2-methyl-2-(thiophen-3-yl)propanamide]",50 nM,≤ 100 nM,94%,> 75%,3 nM,≤ 100 nM
"O=C1CCC(c2c(Cl)cc(CNC(=O)C3(c4ccccc4)CCOC3)cc2Cl)C(=O)N1 (stereo not drawn) [Compound 127, N-(3,5-dichloro-4-(2,6-dioxopiperidin-3-yl)benzyl)-3-phenyltetrahydrofuran-3-carboxamide]",40 nM,≤ 100 nM,90%,> 75%,5 nM,≤ 100 nM
"O=C1CCC(c2c(Cl)cc(CNC(=O)C3(c4ccccc4)CCOCC3)cc2Cl)C(=O)N1 (stereo not drawn) [Compound 128, N-(3,5-dichloro-4-(2,6-dioxopiperidin-3-yl)benzyl)-4-phenyltetrahydro-2H-pyran-4-carboxamide]",40 nM,≤ 100 nM,95%,> 75%,8 nM,≤ 100 nM
O=C1CCC(c2c(Cl)cc(CNC(=O)C3(c4ccccc4)COC3)cc2Cl)C(=O)N1 (stereo not drawn) [Compound 129],90 nM,≤ 100 nM,90%,> 75%,22 nM,≤ 100 nM
"O=C1CCC(c2c(Cl)cc(CNC(=O)C3(c4ccccc4)CCC3)cc2Cl)C(=O)N1 (stereo not drawn) [Compound 130, N-(3,5-dichloro-4-(2,6-dioxopiperidin-3-yl)benzyl)-1-phenylcyclobutane-1-carboxamide]",40 nM,≤ 100 nM,96%,> 75%,2 nM,≤ 100 nM
"O=C1CCC(c2c(Cl)cc(CNC(=O)C3(c4ccc5cn[nH]c5c4)CCOCC3)cc2Cl)C(=O)N1 (stereo not drawn) [Compound 131, N-(3,5-dichloro-4-(2,6-dioxopiperidin-3-yl)benzyl)-4-(1H-indazol-6-yl)tetrahydro-2H-pyran-4-carboxamide]",20 nM,≤ 100 nM,96%,> 75%,1 nM,≤ 100 nM
"O=C1CCC(c2c(Cl)cc(CNC(=O)C3(c4ccc5[nH]ncc5c4)CCOCC3)cc2Cl)C(=O)N1 (stereo not drawn) [Compound 132, N-(3,5-dichloro-4-(2,6-dioxopiperidin-3-yl)benzyl)-4-(1H-indazol-5-yl)tetrahydro-2H-pyran-4-carboxamide]",50 nM,≤ 100 nM,92%,> 75%,5 nM,≤ 100 nM
Cn1ncc2ccc(C3(C(=O)NCc4cc(Cl)c(C5CCC(=O)NC5=O)c(Cl)c4)CCOCC3)cc21 (stereo not drawn) [Compound 133],30 nM,≤ 100 nM,94%,> 75%,2 nM,≤ 100 nM
"Cn1ncc2ccc(C3(C(=O)NCc4cc(Cl)c(C5CCC(=O)NC5=O)c(Cl)c4)CC(=O)C3)cc21 (stereo not drawn) [Compound 134, N-(3,5-dichloro-4-(2,6-dioxopiperidin-3-yl)benzyl)-1-(1-methyl-1H-indazol-6-yl)-3-oxocyclobutane-1-carboxamide]",70 nM,≤ 100 nM,93%,> 75%,2 nM,≤ 100 nM
"CN1CCC(C(=O)NCc2cc(Cl)c(C3CCC(=O)NC3=O)c(Cl)c2)(c2ccc(F)cc2)CC1 (stereo not drawn) [Compound 135, N-(3,5-dichloro-4-(2,6-dioxopiperidin-3-yl)benzyl)-4-(4-fluorophenyl)-1-methylpiperidine-4-carboxamide formate]",20 nM,≤ 100 nM,71%,50 to 75%,16 nM,≤ 100 nM
"O=C1CCC(c2c(Cl)cc(CNC(=O)C3(c4ccnc(F)c4)CC(F)(F)C3)cc2Cl)C(=O)N1 (stereo not drawn) [Compound 136, N-(3,5-dichloro-4-(2,6-dioxopiperidin-3-yl)benzyl)-3,3-difluoro-1-(2-fluoropyridin-4-yl)cyclobutane-1-carboxamide]",60 nM,≤ 100 nM,65%,50 to 75%,63 nM,≤ 100 nM
"O=C1CC(C(=O)NCc2cc(Cl)c(C3CCC(=O)NC3=O)c(Cl)c2)(c2ccc(F)cc2)C1 (stereo not drawn) [Compound 137, N-(3,5-dichloro-4-(2,6-dioxopiperidin-3-yl)benzyl)-1-(4-fluorophenyl)-3-oxocyclobutane-1-carboxamide]",50 nM,≤ 100 nM,97%,> 75%,1 nM,≤ 100 nM
O=C1CCC(c2ccc(CNC(=O)C3(c4ccc(F)cc4)CCOCC3)cc2Cl)C(=O)N1 (stereo not drawn) [Compound 138],180 nM,100 to 1000 nM,88%,> 75%,26 nM,≤ 100 nM
